Where a name gives a salt, the structure may show the parent alone.
Target: LsrK (Salmonella typhimurium, UniProt Q8ZKQ6)
Test: biochemical
Format: biochemical, S. typhimurium
Details: not given

Chain of LsrK (Q8ZKQ6 whole entry): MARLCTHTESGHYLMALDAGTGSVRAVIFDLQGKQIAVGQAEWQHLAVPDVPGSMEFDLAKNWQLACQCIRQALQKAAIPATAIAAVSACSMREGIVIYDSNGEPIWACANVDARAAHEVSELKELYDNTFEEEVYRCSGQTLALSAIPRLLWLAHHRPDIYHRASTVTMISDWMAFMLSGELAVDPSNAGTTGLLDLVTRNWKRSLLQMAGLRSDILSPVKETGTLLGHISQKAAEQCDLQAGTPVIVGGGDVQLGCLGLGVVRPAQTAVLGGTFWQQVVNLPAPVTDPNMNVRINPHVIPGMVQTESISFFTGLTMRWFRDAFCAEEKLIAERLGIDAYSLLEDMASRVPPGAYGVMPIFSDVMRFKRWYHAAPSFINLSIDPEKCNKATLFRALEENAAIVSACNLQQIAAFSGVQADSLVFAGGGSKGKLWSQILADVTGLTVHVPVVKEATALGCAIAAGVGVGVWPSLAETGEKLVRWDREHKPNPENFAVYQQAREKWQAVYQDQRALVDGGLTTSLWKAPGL

Compound | inhibition at 50 µM
O=C(O)c1ccccc1 [BENZOIC ACID] | 3%
C[C@H](CCC(=O)O)[C@H]1CC[C@H]2[C@@H]3C(=O)C[C@@H]4CC(=O)CC[C@]4(C)[C@H]3CC(=O)[C@]12C [DEHYDROCHOLIC ACID] | 4%
Cc1cc(=O)[nH]c(=S)[nH]1 [METHYLTHIOURACIL] | 4%
COc1cc(CNC(=O)CCCC/C=C/C(C)C)ccc1O [CAPSAICIN] | 2%
CC1(C)C(=O)C=C[C@]2(C)[C@H]3CC[C@@]4(C)[C@H](c5ccoc5)OC(=O)[C@H]5O[C@]54[C@]3(C)C(=O)C[C@@H]12 [DEACETOXY-7-OXOGEDUNIN] | 2%
O=C1C=C2C(=CCOC2O)O1 (stereo not shown) [PATULIN] | 99%
CN(C)CCC(c1ccc(Br)cc1)c1ccccn1 (stereo not shown) [BROMPHENIRAMINE MALEATE] | 1%
O=c1c(O)c(-c2ccc(O)cc2O)oc2cc(O)cc(O)c12 [MORIN] | 154%
COc1ccc2c(c1)CC[C@@H]1[C@@H]2CC[C@]2(C)[C@@H](O)CC[C@@H]12 [ESTRADIOL METHYL ETHER] | 3%
Cc1ccc(-c2cc(C(F)(F)F)nn2-c2ccc(S(N)(=O)=O)cc2)cc1 [CELECOXIB] | 1%
C[C@@H]1O[C@@H](Oc2c(-c3ccc(O)c(O)c3)oc3cc(O)cc(O)c3c2=O)[C@H](O)[C@H](O)[C@H]1O [QUERCITRIN] | 2%
CN1CCOC(c2ccccc2)c2ccccc2C1 (stereo not shown) [NEFOPAM] | 1%
Clc1ccccc1CN1CCc2sccc2C1 [TICLOPIDINE HYDROCHLORIDE] | 1%
CCCCCCCCNC(C)C(O)c1ccc(SC(C)C)cc1 (stereo not shown) [SULOCTIDIL] | 0%
Cc1cccc2c3c(ccc12)C1=C(C(=O)C3=O)[C@@H](C)CO1 [DIHYDROTANSHINONE I] | 115%
O=c1c(O)c(-c2cc(O)c(O)c(O)c2)oc2cc(O)cc(O)c12 [MYRICETIN] | 14%
O=C1OC(CN2CCOCC2)CN1/N=C/c1ccc([N+](=O)[O-])o1 (stereo not shown) [FURALTADONE] | 2%
COc1ccc([C@@H]2CC(=O)c3c(O)cc(O)cc3O2)cc1O [HESPERETIN] | 0%
COc1ccc(-c2cc(C(F)F)nn2-c2ccc(S(N)(=O)=O)cc2)cc1F [DERACOXIB] | 2%
O=C(O)CCC1NCC2CC1CN1CCCCC21 (stereo not shown) [LUPANYL ACID HYDROCHLORIDE] | 1%
CC(C)(N)Cc1ccccc1 [PHENTERMINE] | 15%
CC[C@@]1(O)C(=O)OCc2c1cc1n(c2=O)Cc2cc3ccccc3nc2-1 [CAMPTOTHECIN] | 1%
CO/N=C(\C(=O)N[C@@H]1C(=O)N2C(C(=O)OC(C)OC(C)=O)=C(COC(N)=O)CS[C@H]12)c1ccco1 (stereo partly shown) [CEFUROXIME AXETIL] | 2%

Compound | inhibition at 50 µM
CC(=O)N[C@@H](Cc1c[nH]c2ccccc12)C(=O)O [ACETYLTRYPTOPHAN] | 6%
CCCC1O[C@@H]2C[C@H]3[C@@H]4CCC5=CC(=O)C=C[C@]5(C)[C@H]4[C@@H](O)C[C@]3(C)[C@]2(C(=O)CO)O1 (stereo partly shown) [BUDESONIDE] | 2%
CN(C)CCC(c1ccccc1)c1ccccn1 (stereo not shown) [PHENIRAMINE MALEATE] | 3%
Cc1cc(NS(=O)(=O)c2ccc(N)cc2)no1 [SULFAMETHOXAZOLE] | 1%
CCCCC(CC)CNC(=N)NC(=N)NCCCCCCNC(=N)NC(=N)NCC(CC)CCCC (stereo not shown) [ALEXIDINE HYDROCHLORIDE] | 146%
O=NN(CCCl)C(=O)NCCCl [CARMUSTINE] | 10%
NCCc1cc(O)c(O)cc1O [OXIDOPAMINE HYDROCHLORIDE] | 117%
OCCOCCN1CCN(C(c2ccccc2)c2ccc(Cl)cc2)CC1 (stereo not shown) [HYDROXYZINE PAMOATE] | 125%
[N-]=[N+]=CC(=O)OC[C@H](N)C(=O)O [AZASERINE] | 3%
COc1cc(C(C)=O)cc(OC)c1O [ACETOSYRINGONE] | 8%
C[C@]12CC[C@@H](O)C[C@@H]1CC[C@@H]1[C@@H]2CC[C@]2(C)C(=O)CC[C@@H]12 [ANDROSTERONE] | 1%
Sc1nc2ccccc2s1 [2-MERCAPTOBENZOTHIAZOLE] | 1%
NCCC(=O)N[C@@H](Cc1cnc[nH]1)C(=O)O [CARNOSINE] | 0%
O=C(CCc1ccc(O)cc1)c1c(O)cc(O)cc1O [PHLORETIN] | 60%
O=C(O)CCCCCCCC(=O)O [AZELAIC ACID] | 3%
C=C[C@H]1CN2CC[C@H]1C[C@H]2[C@H](OC(=O)OCC)c1ccnc2ccc(OC)cc12 [QUININE ETHYL CARBONATE] | 3%
CC(C)NNC(=O)c1ccncc1 [[…]] | 0%
C[C@H]1C(=O)O[C@@H]2CCN3CC=C(COC(=O)[C@](C)(O)[C@]1(C)O)[C@H]23 [MONOCROTALINE] | 111%
O=C(O)c1cc(/N=N/c2ccc(S(=O)(=O)Nc3ccccn3)cc2)ccc1O [SULFASALAZINE] | 5%
CCC[C@@H]1C[C@@H](C(=O)N[C@@H]([C@H]2O[C@H](SC)[C@H](O)[C@@H](O)[C@H]2O)[C@H](C)Cl)N(C)C1 [CLINDAMYCIN HYDROCHLORIDE] | 0%
OC(CCN1CCCC1)(c1ccccc1)C1CCCCC1 (stereo not shown) [PROCYCLIDINE HYDROCHLORIDE] | 0%
CCC1(C)CC(=O)NC1=O (stereo not shown) [ETHOSUXIMIDE] | 17%
O=C(/C=C/c1ccc(O)c(O)c1)O[C@H](Cc1ccc(O)c(O)c1)C(=O)O [ROSMARINIC ACID] | 2%

Compound | inhibition at 50 µM
CC(C)C(=O)Nc1ccc([N+](=O)[O-])c(C(F)(F)F)c1 [FLUTAMIDE] | 2%
C=C1CCC2C(CC2(C)C)C(=O)CCC1O (stereo not shown) [ISOKOBUSONE] | 3%
CCCCCCCCCCOc1cc2c(O)c(C(=O)OCC)cnc2cc1OCC [DECOQUINATE] | 36%
Cn1nnnc1SCC1=C(C(=O)O)N2C(=O)[C@@H](NC(=O)[C@H](OC=O)c3ccccc3)[C@H]2SC1 [CEFAMANDOLE NAFATE] | 1%
CC(C)c1cccc(C(C)C)c1O [PROPOFOL] | 7%
COc1ccc2c(c1)OC[C@@H](Cc1ccc(OC)c(OC)c1)[C@H]2O | 2%
CCNC(=O)CC[C@H](N)C(=O)O [THEANINE] | 1%
C[N+]1(C)CCC(OC(=O)C(O)(c2ccccc2)C2CCCC2)C1 (stereo not shown) [GLYCOPYRROLATE] | 0%
Cc1cccc(C)c1NC(=O)C1CCCCN1C (stereo not shown) [MEPIVACAINE HYDROCHLORIDE] | 15%
C/C=C(/C(=C/C)c1ccc(O)cc1)c1ccc(O)cc1 [DIENESTROL] | 2%
C[C@H](CCC(=O)O)[C@H]1CC[C@H]2[C@@H]3[C@H](O)C[C@@H]4C[C@H](O)CC[C@]4(C)[C@H]3CC[C@]12C [CHENODIOL] | 2%
O=c1c(O)c(-c2ccc(O)c(O)c2)oc2c(O)c(O)cc(O)c12 [GOSSYPETIN] | 115%
Cc1ccc2c(Cl)cc(Cl)c(O)c2n1 [CHLORQUINALDOL] | 0%
COC(=O)Nc1nc2ccc(C(=O)c3ccccc3)cc2[nH]1 [MEBENDAZOLE] | 1%
COC(=O)Nc1nc2ccc([S+]([O-])c3ccccc3)cc2[nH]1 (stereo not shown) [OXFENDAZOLE] | 27%
C[C@]12CC[C@H]3[C@@H](CCC4=CC(=O)CC[C@@]43C)[C@@H]1CC[C@H]2O [EPITESTOSTERONE] | 0%
C=C1C[C@@H]2[C@H](CC[C@]3(C)C(=O)CC[C@@H]23)[C@@]2(C)C=CC(=O)C=C12 [EXEMESTANE] | 11%
O=C(O)/C=C/C=C/c1ccc2c(c1)OCO2 [PIPERIC ACID] | 0%
C=CCSCC1Nc2cc(Cl)c(S(N)(=O)=O)cc2S(=O)(=O)N1 (stereo not shown) [ALTHIAZIDE] | 2%
O=C1c2ccccc2C(=O)c2c(O)c(O)cc(O)c21 [PURPURIN] | 45%
NC(=O)c1ncn([C@@H]2O[C@H](CO)[C@@H](O)[C@H]2O)n1 [RIBAVIRIN] | 5%
COc1cc(O)c(C(C)=O)c(OC)c1 [XANTHOXYLIN] | 0%

Same assay, conditions: 50 µM

Compound | Inhibition (%)
CCc1cc(Cl)c(OC)c(C(=O)NC[C@@H]2CCCN2CC)c1O.Cl [ETICLOPRIDE HYDROCHLORIDE] | 2
METHIONINE SULFOXIMINE (L) | 2
O=C(O)C(S)C(S)C(=O)O (stereo not shown) [2.3-DIMERCAPTOSUCCINIC ACID] | 88
COc1cc(O)c(C(=O)/C=C/c2ccc(OC)c(O)c2)c(OC)c1 [2'.3-DIHYDROXY-4.4'.6'-TRIMETHOXYCHALCONE] | 2
COc1ccc([C@@H]2CC(=O)c3c(O)cc(O[C@@H]4O[C@H](CO[C@@H]5O[C@@H](C)[C@H](O)[C@@H](O)[C@H]5O)[C@@H](O)[C@H](O)[C@H]4O)cc3O2)cc1O [HESPERIDIN] | 1
C=C[C@@]1(C)CC(=O)[C@@]2(O)[C@](C)(O1)[C@@H](O)[C@@H](O)C1C(C)(C)CC[C@H](O)[C@@]12C (stereo partly shown) [DESACETYLCOLFORSIN] | 1
O=c1ccc2cc(O[C@@H]3O[C@H](CO)[C@@H](O)[C@H](O)[C@H]3O)c(O)cc2o1 [AESCULIN] | 1
C[C@]12CCC3c4ccc(OS(=O)(=O)[O-])cc4CCC3C1CC[C@H]2O.[Na+] (stereo partly shown) [ESTRADIOL-3-SULFATE. SODIUM SALT] | 0
O=c1cc(-c2ccc(O)cc2)oc2cc(O)ccc12 [7.4'-DIHYDROXYFLAVONE] | 1
Cl.O=c1[nH]oc2c1CCNC2 [GABOXADOL HYDROCHLORIDE] | 1
O=C(Oc1cc(O)cc2c1C[C@@H](OC(=O)c1cc(O)c(O)c(O)c1)[C@@H](c1cc(O)c(O)c(O)c1)O2)c1cc(O)c(O)c(O)c1 [EPIGALLOCATECHIN 3.5-DIGALLATE] | 88
COc1cc2c(cc1-c1cc3cc4ccoc4cc3oc1=O)OCO2 [PACHYRRHIZIN] | 1
POLYMYXIN B SULFATE | 48
CC(=O)O[C@H]1C[C@@H](OC(C)=O)C(C)(C)C2C[C@@H](O)[C@]3(C)C(CC[C@@]4(C)[C@H](c5ccoc5)OC(=O)[C@H]5O[C@]543)[C@]21C (stereo partly shown) [7-DEACETYLKHIVORIN] | 0

From PMC6627609, “Targeting Quorum Sensing: High-Throughput Screening to Identify Novel LsrK Inhibitors” (International Journal of Molecular Sciences, 2019)
